Experiments:
[1] = Malonic acid solubility in water at various temperatures; type: physicochemical; settings: 65° C.
[2] = Thermal stability of malonic acid (decarboxylation to acetic acid); type: physicochemical

solubility limit of malonic acid [1]: 76 % wt/wt
temperature at which malonic acid decarboxylates to form acetic acid [2]: approximately 80 °C
temperature at which malonic acid begins to rapidly decompose ([2]; under acidic conditions): about 80 °C
Structure (SMILES): O=C(O)CC(=O)O [malonic acid, propanedioic acid]

From US11326191B2 (LYGOS, INC., priority 2016, dated 2022)
